Results published in US12617760B2, “[(5-phenyl-1-heteroaryl-1H-triazol-3-yl)oxy] acetic acid derivatives as safeners for the protection of useful plants and crop plants” (BAYER AKTIENGESELLSCHAFT, priority 2020, dated 2026).

System: summer barley (HORVS)
Test: Reduction of damage by mesosulfuron-methyl on summer barley (safener greenhouse test, post-emergence)
Assay type: in vivo, summer barley (HORVS; cv. Montoya)
Design: key: 0: no reduction in damage (appearance corresponding to the herbicide control); 1: slight reduction in damage; 2: distinct reduction in damage; 3: significant reduction in damage; 4: complete reduction in damage (appearance corresponding to the untreated control)
Conditions: safener dose 500 g/ha, sprayed at BBCH10-12, followed by mesosulfuron-methyl 40-60 g/ha, visual assessment 9-13 days after application, 2 repeats
Description: 2.1 Relative Action of Selected Compounds of the Invention Using the Example of Reduction of Damage by Mesosulfuron-Methyl on Summer Barley (HORVS) The seeds of the crop plants to be treated are laid out in sandy loam in plastic pots (diameter ˜4 cm), covered with soil and grown in a greenhouse under good conditions for germination and growth. The trial plants were treated at the early leaf stage (BBCH10-BBCH12). In the course of this, the inventive compounds of the general formula (I) formulated in the form of wettable powders (WP) were sprayed onto the above-ground parts of the plants as an aqueous suspension with a water application rate corresponding to 800 l/ha with addition of wetting agent (e.g. 0.2% Genapol-LRO or 0.2% Mero) in the specified dose. This was followed by the application of the herbicide. For this purpose, mesosulfuron-methyl, formulated in the form of water-dispersible granules (WG), was sprayed onto the above-ground parts of the plants in the form of an aqueous dispersion with a water application rate corresponding to 800 l/ha with addition of wetting agent (e.g. 0.2% Genapol-LRO or 1 l/ha Biopower) in a dose of 40-60 g/ha. […] 9-13 days after application, the efficacy of the test compounds was assessed visually. […]

COC(=O)COc1nc(-c2ccc(F)cc2F)n(-c2ccc(F)cn2)n1 [I.40-11, Methyl {[5-(2,4-difluorophenyl)-1-(5-fluoropyridin-2-yl)-1H-1,2,4-triazol-3-yl]oxy}acetate]
Efficacy of the safener (efficacy code): 2
